Activity calls are given as the source filed them. The calls are words filed in the database; no cut-off is given here.
Legend:
[1] = Acute toxicity in Albino Swiss mouse assessed as animal mortality at 300 mg/kg, po administered as single dose measured after 14 days; assay type: organism-based; conditions: in vivo, 336 h, time 14 day
[2] = Acute toxicity in Albino Swiss mouse assessed as behavioural toxicity at 300 mg/kg, po administered as single dose measured after 14 days; assay type: organism-based; conditions: in vivo, 336 h, time 14 day
[3] = Hemolytic activity in human red blood cells assessed as hemoglobin release at 250 to 15.6 uM incubated for 60 mins by spectrophotometry; assay type: toxicity, cell-based, Erythrocyte; conditions: dose 250-15.6 µM, read-out: Activity
[4] = Selectivity index, ratio of CC50 for African green monkey Vero cells to IC50 for chloroquine-resistant Plasmodium falciparum W2 infected in human erythrocytes; assay type: toxicity, cell-based; conditions: read-out: Ratio CC50/IC50
[5] = Cytotoxicity against African green monkey Vero cells incubated for 24 hrs by MTT assay; assay type: toxicity, cell-based; conditions: chlorocebus sabaeus
Plasmodium berghei [6] = test: Antimalarial activity against Plasmodium berghei ANKA infected in Albino Swiss mouse assessed as half-survival time at 30 mg/kg, po administered for 4 consecutive days measured for 30 days (reference value: 16 day); assay type: functional; conditions: time 30 day
[7] = Acute toxicity in Albino Swiss mouse assessed as change in sensory function at 300 mg/kg, po administered as single dose measured after 14 days; assay type: organism-based; conditions: in vivo, 336 h, time 14 day
[8] = Acute toxicity in Albino Swiss mouse assessed as signs of cyanosis at 300 mg/kg, po administered as single dose measured after 14 days; assay type: organism-based; conditions: in vivo, 336 h, time 14 day
[9] = Acute toxicity in Albino Swiss mouse assessed as change in relative weight of kidney at 300 mg/kg, po administered as single dose measured after 14 days; assay type: organism-based; conditions: in vivo, 336 h, time 14 day
[10] = Acute toxicity in Albino Swiss mouse assessed as signs of toxicity at 300 mg/kg, po administered as single dose measured after 14 days; assay type: organism-based; conditions: in vivo, 336 h, time 14 day
[11] = Selectivity index, ratio of CC50 for human HepG2 cells to IC50 for chloroquine-resistant Plasmodium falciparum W2 infected in human erythrocytes; assay type: toxicity, cell-based; conditions: read-out: Ratio CC50/IC50
Plasmodium falciparum [12] = test: Antimalarial activity against chloroquine-resistant Plasmodium falciparum W2 infected in human erythrocytes assessed as parasite growth inhibition incubated for 48 hrs by geimsa staining based microscopy; assay type: functional, organism-based; conditions: W2, Erythrocyte
[13] = Acute toxicity in Albino Swiss mouse assessed as change in urination volume at 300 mg/kg, po administered as single dose measured after 14 days; assay type: organism-based; conditions: in vivo, 336 h, time 14 day
HepG2 = test: Cytotoxicity against human HepG2 cells incubated for 24 hrs by MTT assay; assay type: functional
[14] = Acute toxicity in Albino Swiss mouse assessed as escape reaction at 300 mg/kg, po administered as single dose measured after 14 days; assay type: organism-based; conditions: in vivo, 336 h, time 14 day
[15] = Hemolytic activity in human red blood cells type A assessed as hemoglobin release at 500 to 1000 uM incubated for 60 mins by spectrophotometry; assay type: toxicity, cell-based, Erythrocyte; conditions: dose 500-1000 µM, read-out: Activity
[16] = Acute toxicity in Albino Swiss mouse assessed as change in relative weight of spleen at 300 mg/kg, po administered as single dose measured after 14 days; assay type: organism-based; conditions: in vivo, 336 h, time 14 day
[17] = Acute toxicity in Albino Swiss mouse assessed as change in diarrhea at 300 mg/kg, po administered as single dose measured after 14 days; assay type: organism-based; conditions: in vivo, 336 h, time 14 day
[18] = Acute toxicity in Albino Swiss mouse assessed as change in relative weight of liver at 300 mg/kg, po administered as single dose measured after 14 days; assay type: organism-based; conditions: in vivo, 336 h, time 14 day
[19] = Acute toxicity in Albino Swiss mouse assessed as signs of pallor at 300 mg/kg, po administered as single dose measured after 14 days; assay type: organism-based; conditions: in vivo, 336 h, time 14 day
[20] = Acute toxicity in Albino Swiss mouse assessed as change in defecation at 300 mg/kg, po administered as single dose measured after 14 days; assay type: organism-based; conditions: in vivo, 336 h, time 14 day
[21] = Acute toxicity in Albino Swiss mouse assessed as signs of hyperemia at 300 mg/kg, po administered as single dose measured after 14 days; assay type: organism-based; conditions: in vivo, 336 h, time 14 day
[22] = Acute toxicity in Albino Swiss mouse assessed as change in motor function at 300 mg/kg, po administered as single dose measured after 14 days; assay type: organism-based; conditions: in vivo, 336 h, time 14 day
[23] = Octanol-water partition coefficient, logP of the compound; assay type: physicochemical
[24] = Acute toxicity in Albino Swiss mouse assessed as aggressiveness at 300 mg/kg, po administered as single dose measured after 14 days; assay type: organism-based; conditions: in vivo, 336 h, time 14 day
[25] = Acute toxicity in Albino Swiss mouse assessed as contortions at 300 mg/kg, po administered as single dose measured after 14 days; assay type: organism-based; conditions: in vivo, 336 h, time 14 day
[26] = Acute toxicity in Albino Swiss mouse assessed as change in urine color at 300 mg/kg, po administered as single dose measured after 14 days; assay type: organism-based; conditions: in vivo, 336 h, time 14 day
Plasmodium falciparum [27] = test: Induction of morphological changes in chloroquine-resistant Plasmodium falciparum W2 trophozoites assessed as loss of membrane integrity by TEM analysis; assay type: functional, organism-based
Plasmodium berghei [28] = test: Antimalarial activity against Plasmodium berghei ANKA infected in Albino Swiss mouse assessed as reduction in parasitemia at 30 mg/kg, po administered for 4 consecutive days measured after day 7 relative to control; assay type: functional; parameters: scale not given: the % may be the effect or the level left; conditions: time 7 day
[29] = Acute toxicity in Albino Swiss mouse assessed as macroscopic alterations in liver at 300 mg/kg, po administered as single dose measured after 14 days by H and E staining based analysis; assay type: organism-based; conditions: in vivo, 336 h, time 14 day
[30] = Acute toxicity in Albino Swiss mouse assessed as pathological damage in spleen at 300 mg/kg, po administered as single dose measured after 14 days by H and E staining based analysis; assay type: organism-based; conditions: in vivo, 336 h, time 14 day
[31] = Acute toxicity in Albino Swiss mouse assessed as pathological lesions in liver at 300 mg/kg, po administered as single dose measured after 14 days by H and E staining based analysis; assay type: organism-based; conditions: in vivo, 336 h, time 14 day
Plasmodium falciparum [32] = test: Induction of morphological changes in chloroquine-resistant Plasmodium falciparum W2 trophozoites assessed as dense cytoplasm with undefined organelles by TEM analysis; assay type: functional, organism-based
Plasmodium falciparum [33] = test: Induction of morphological changes in chloroquine-resistant Plasmodium falciparum W2 trophozoites assessed as deteriorated food vacuole by TEM analysis; assay type: functional, organism-based
[34] = Toxicity in Albino Swiss mouse infected with Plasmodium berghei ANKA assessed as mortality rate at 30 mg/kg, po administered for 4 consecutive days measured for 14 days relative to control; assay type: organism-based; conditions: in vivo, time 14 day, read-out: Activity
Plasmodium falciparum [35] = test: Induction of morphological changes in chloroquine-resistant Plasmodium falciparum W2 trophozoites assessed as degraded cytoplasm by TEM analysis relative to control; assay type: functional
[36] = Acute toxicity in Albino Swiss mouse assessed as pathological changes in kidney at 300 mg/kg, po administered as single dose measured after 14 days by H and E staining based analysis; assay type: organism-based; conditions: in vivo, 336 h, time 14 day

What does the source list for `O=C1C=C(NCCn2cc(-c3ccccc3)nn2)C(=O)c2ccccc21`?
Activity [1]: Non-Toxic; Activity [2]: Non-Toxic; hemolysis at 1 h [3]: < 40%; selectivity ratio [4]: 143; CC50 at 24 h [5]: 116 µM; Survival (Plasmodium berghei [6]): 13 days; Activity [7]: Non-Toxic; Activity [8]: Non-Toxic; Activity [9]: Non-Toxic; Activity [10]: Non-Toxic; selectivity ratio [11]: 343; IC50 (Plasmodium falciparum [12]): 0.81 µM; Activity [13]: Non-Toxic; CC50 (HepG2): 278 µM; Activity [14]: Non-Toxic; hemolysis at 1 h, up to 1000 µM [15]: > 40%; Activity [16]: Non-Toxic; Activity [17]: Non-Toxic; Activity [18]: Non-Toxic; Activity [19]: Non-Toxic; Activity [20]: Non-Toxic; Activity [21]: Non-Toxic; Activity [22]: Non-Toxic; logP [23]: 2.67; Activity [24]: Non-Toxic; Activity [25]: Non-Toxic; Activity [26]: Non-Toxic

Which results are given for `COc1ccc(-c2cn(CCNC3=CC(=O)c4ccccc4C3=O)nn2)cc1`?
Activity (Plasmodium falciparum [27]): Active; Activity (Plasmodium berghei [28]): 33%; Activity [1]: Non-Toxic; Activity [2]: Non-Toxic; hemolysis at 1 h [3]: < 40%; Activity [29]: Non-Toxic; selectivity ratio [4]: 95.8; Activity [30]: Non-Toxic; CC50 at 24 h [5]: 401 µM; Survival (Plasmodium berghei [6]): 26 days; Activity [7]: Non-Toxic; Activity [8]: Non-Toxic; Activity [9]: Non-Toxic; Activity [31]: Toxic; Activity [10]: Non-Toxic; Activity (Plasmodium falciparum [32]): Active; selectivity ratio [11]: 68.8; IC50 (Plasmodium falciparum [12]): 4.2 µM; Activity [13]: Non-Toxic; CC50 (HepG2): 289 µM; Activity [14]: Non-Toxic; Activity (Plasmodium falciparum [33]): Active; hemolysis at 1 h, up to 1000 µM [15]: > 40%; Activity [16]: Non-Toxic; Activity [17]: Non-Toxic; Activity [18]: Non-Toxic; Activity [19]: Non-Toxic; mortality at 336 h [34]: 20%; Activity [20]: Non-Toxic; Activity (Plasmodium falciparum [35]): 100%; Activity [21]: Non-Toxic; Activity [22]: Non-Toxic; Activity [36]: Non-Toxic; logP [23]: 2.72; Activity [24]: Non-Toxic; Activity [25]: Non-Toxic; Activity [26]: Non-Toxic

What does the source list for `Cc1ccc(-c2cn(CCNC3=CC(=O)c4ccccc4C3=O)nn2)cc1`?
Activity [1]: Non-Toxic; Activity [2]: Non-Toxic; hemolysis at 1 h [3]: < 40%; selectivity ratio [4]: 13.7; CC50 at 24 h [5]: 207 µM; Survival (Plasmodium berghei [6]): 14 days; Activity [7]: Non-Toxic; Activity [8]: Non-Toxic; Activity [9]: Non-Toxic; Activity [10]: Non-Toxic; selectivity ratio [11]: 6.88; IC50 (Plasmodium falciparum [12]): 15.1 µM; Activity [13]: Non-Toxic; CC50 (HepG2): 104 µM; Activity [14]: Non-Toxic; hemolysis at 1 h, up to 1000 µM [15]: > 40%; Activity [16]: Non-Toxic; Activity [17]: Non-Toxic; Activity [18]: Non-Toxic; Activity [19]: Non-Toxic; mortality at 336 h [34]: 100%; Activity [20]: Non-Toxic; Activity [21]: Non-Toxic; Activity [22]: Non-Toxic; logP [23]: 3.12; Activity [24]: Non-Toxic; Activity [25]: Non-Toxic; Activity [26]: Non-Toxic

Which Activity [1] does the source give for `CC(C)(O)c1cn(CCNC2=CC(=O)c3ccccc3C2=O)nn1` here?
The Activity was “Non-Toxic”.

And the Activity [2]?
Its Activity is “Non-Toxic”.

What about the hemolysis at 1 h [3] of the same molecule?
Its hemolysis at 1 h is under 40%.

And the selectivity ratio [4]?
Its selectivity ratio is 28.5.

And the CC50 at 24 h [5]?
The CC50 at 24 h was 188 µM.

And the Survival (Plasmodium berghei [6])?
Its Survival is 14 days.

And the Activity [7]?
Its Activity is “Non-Toxic”.

What about the Activity [8] of the same molecule?
Its Activity is “Non-Toxic”.

What about the Activity [9] of the same molecule?
Its Activity is “Non-Toxic”.

And the Activity [10]?
The Activity was “Non-Toxic”.

And the selectivity ratio [11]?
The selectivity ratio was 35.3.

What about the IC50 (Plasmodium falciparum [12]) of the same molecule?
Its IC50 is 6.6 µM.

And the Activity [13]?
Its Activity is “Non-Toxic”.

What about the CC50 (HepG2) of the same molecule?
The CC50 was 233 µM.

And the Activity [14]?
Its Activity is “Non-Toxic”.

And the hemolysis at 1 h, up to 1000 µM [15]?
Its hemolysis at 1 h, up to 1000 µM is over 40%.

And the Activity [16]?
Its Activity is “Non-Toxic”.

And the Activity [17]?
The Activity was “Non-Toxic”.

And the Activity [18]?
The Activity was “Non-Toxic”.

And the Activity [19]?
Its Activity is “Non-Toxic”.

And the Activity [20]?
The Activity was “Non-Toxic”.

And the Activity [21]?
Its Activity is “Non-Toxic”.

What about the Activity [22] of the same molecule?
Its Activity is “Non-Toxic”.

What about the logP [23] of the same molecule?
Its logP is 1.38.

And the Activity [24]?
The Activity was “Non-Toxic”.

And the Activity [25]?
The Activity was “Non-Toxic”.

And the Activity [26]?
The Activity was “Non-Toxic”.
